Laboratory results from patent US9115129B2, “Substituted pyrido[2,3-B]pyrazines as IP receptor agonists” (Novartis AG, priority 2012, dated 2015).

Target: T1, IP receptor (Homo sapiens, UniProt P43119)
T1 construct: expressed in transfected cells; host or cells: CHO cells stably expressing the IP receptor (CHO-IP)
Assay: cAMP accumulation in CHO cells stably expressing the IP receptor (CHO-IP), Perkin Elmer AlphaScreen assay
Type: cell-based
Details: agonist activity, 1 hour at room temperature
Procedure: Activity of compounds at the IP receptor (IP receptor) is assessed by measuring cAMP accumulation in CHO cells stably expressing the IP receptor (CHO-IP) using the Perkin Elmer AlphaScreen assay. This technology measures the endogenous production of cAMP, in a non-radioactive luminescence proximity homogenous assay. A biological reaction occurs between streptavidin coated donor beads, biotinylated cAMP and anti-cAMP acceptor beads, bringing the donor and acceptor beads close enough together so that upon excitation a fluorescence signal is produced. On production of endogenous cAMP, competition between the biotinylated cAMP and cellular-derived cAMP causes a reduction in the fluorescent signal. The reduction in signal is proportional to the amount of cAMP being produced, thus it is possible to quantify the amount of cAMP being produced on stimulation with agonist.
Test and reference compounds are prepared at 100× [final] in 100% DMSO, and diluted 1:3 using a Biomek Fx (Beckman Coulter). This is followed by an intermediate dilution to give 5× [final] in assay buffer (HBSS containing 5 mM HEPES, 0.1% (w/v) BSA). 5 μL of 5× [final] test compounds, reference compounds and buffer/DMSO control are then transferred to a 384-well white OptiPlate, containing 20 μL CHO-IP cell suspension (15,000 cells/well, prepared from frozen), and plate is incubated at room temperature for 1 hour. A cAMP standard curve is constructed for each experiment (concentration range of 10000 nM to 0.001 nM, in assay buffer) and 25 μL of each concentration added to the last two columns of the assay plate. The incubation is terminated by the addition of lysis buffer (dH2O; 0.3% (v v^−1) Tween-20) containing 20 units mL^−1 streptavidin coated donor beads and biotinylated cAMP (pre-incubated for 30 minutes) and 20 units mL^−1 anti-cAMP acceptor beads, which are added to the lysis buffer just before addition to the assay plate. The assay plate is then incubated at room temperature in the dark, for 60 minutes with gentle shaking, and read on the Envision plate reader (Perkin Elmer).
The raw data of the reference compounds, test compounds and controls are converted into cAMP concentrations, using the cAMP standard curve, in Graph Pad Prism (Graph Pad Software Inc). EC50 as well as maximal values of the agonist curves are determined using a 4-parameter logistic equation. The % maximum response values of all test compounds are determined using the top of the treprostinil concentration-response curve.

T1 sequence (P43119 whole entry): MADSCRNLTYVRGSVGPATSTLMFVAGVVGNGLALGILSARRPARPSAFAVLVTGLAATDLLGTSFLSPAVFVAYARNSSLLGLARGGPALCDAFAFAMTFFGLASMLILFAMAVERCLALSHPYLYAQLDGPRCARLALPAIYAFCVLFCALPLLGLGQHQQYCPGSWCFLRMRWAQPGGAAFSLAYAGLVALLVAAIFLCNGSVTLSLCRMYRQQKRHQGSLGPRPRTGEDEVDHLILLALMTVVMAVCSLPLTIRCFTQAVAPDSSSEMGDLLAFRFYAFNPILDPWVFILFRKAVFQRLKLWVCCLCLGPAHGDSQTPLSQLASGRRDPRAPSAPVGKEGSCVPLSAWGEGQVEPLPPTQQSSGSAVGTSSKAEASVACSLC

Molecule | EC50 [nM]
Cc1ccc(-c2nc3c(nc2-c2ccc(C)cc2)N(CCCCCCC(=O)N(C)O)CCC3)cc1 [Example 12.8, 7-(2,3-Di-p-tolyl-7,8-dihydropyrido[2,3-b]pyrazin-5(6H)-yl)-N-hydroxy-N-methylheptanamide] | 8
Cc1ccc(-c2nc3c(nc2-c2ccc(C)cc2)N(CCCCCCC(=O)NO)CCC3)cc1 [Example 12.9, 7-(2,3-Di-p-tolyl-7,8-dihydropyrido[2,3-b]pyrazin-5(6H)-yl)-N-hydroxyheptanamide] | 0.4
Cc1ccc(-c2nc3c(nc2-c2ccc(C)cc2)N(CCCCCC(=O)NO)CCC3)cc1 [Example 12.10, 6-(2,3-Di-p-tolyl-7,8-dihydropyrido[2,3-b]pyrazin-5(6H)-yl)-N-hydroxyhexanamide] | 55.6
Cc1ccc(-c2nc3c(nc2-c2ccc(C)cc2)N(CCCCCCC(=O)NS(C)(=O)=O)CCC3)cc1 [Example 13.4, 7-(2,3-Di-p-tolyl-7,8-dihydropyrido[2,3-b]pyrazin-5(6H)-yl)-N-(methylsulfonyl) heptanamide] | 0.7
Cc1ccc(-c2nc3c(nc2-c2ccc(C)cc2)N(CCCCCCC(=O)NS(=O)(=O)C(C)C)CCC3)cc1 [Example 13.5, 7-(2,3-Di-p-tolyl-7,8-dihydropyrido[2,3-b]pyrazin-5(6H)-yl)-N-(isopropylsulfonyl) heptanamide] | 5
Cc1ccc(-c2nc3c(nc2-c2ccc(C)cc2)N(CCCCCCC(=O)O)CC(N2CCCCC2)C3)cc1 (centres unmarked) [Example 14] | 2.7
Cc1ccc(-c2nc3c(nc2-c2ccc(C)cc2)C(C)(O)CCN3CCCCCCC(=O)O)cc1 (centres unmarked) [Example 16, 7-(8-Hydroxy-8-methyl-2,3-di-p-tolyl-7,8-dihydropyrido[2,3-b]pyrazin-5(6H)-yl)heptanoic acid] | 0.4
(R)-6-(2,3-di-p-tolyl-5,6,7,8-tetrahydropyrido[2,3-b]pyrazin-6-yl)hexanoic acid or (S)-6-(2,3-di-p-tolyl-5,6,7,8-tetrahydropyrido[2,3-b]pyrazin-6-yl)hexanoic acid [1(i)] | 0.9
